From patent publication US9333211B2, “Phosphaplatin mediated modulation of pigment epithelial derived factor and uses thereof” (UNIVERSITY OF HOUSTON SYSTEM, priority 2013, dated 2016)
Entries after “also recorded” stand apart in the source; their conditions may differ.

Legend:
ARPE19 cells = experiment: CellTiter-Glo Luminescent Cell Viability Assay; assay type: cell-based, human; details: 100 μM, 24 hours of treatment
Procedure: Promega's CellTiter-Glo® Luminescent Cell Viability Assay was used to determine the number of viable cells in a culture by quantification of ATP (Promega. Madison, Wis.). Briefly, ARPE19 cells, a normal human retinal pigment epithelial cell line, were seeded in a 96 well plate with 10,000-30,000 cells per well and were allowed to attach for 24 hours. Thereafter, the cells were treated with RRD2 or RRD4 at different concentrations ranging from 1 to 100 μM for 24 hours. The detection reagent was prepared per manufactures protocol and equal volume of CellTiter-Glo® reagent was added to each well of cell culture and luminescence read with integration time set for 0.25 to 1 second. The Glo titer Viability Assay has a linear range is from 0 to 50,000 cells per well. Each concentration was done in triplicate.

PEDF gene [1] = experiment: PEDF gene expression, Human angiogenesis PCR array (real-time PCR); assay type: cell-based; details: A2780 cells, 24 hr, ΔΔCT vs β-actin
Procedure: Human ovarian cancer cell lines, A2780 (Fox Chase) were cultured in 100 mm^3 plates in monolayer by using RPMI medium 1640 supplemented with 10% FBS, 2 mM glutamine, 0.25 units/mL insulin and penicillin/streptomycin (100 units/ml) in a 37° C. incubator continuously gassed with 5% CO2. The cells were treated with either RRD2 and RRD4, 5 μM and 13 μM, respectively, for 24 hrs in triplicate. The cells were collected by 0.025% trypsin-edta and were centrifuged. The pellet of cells was then resuspended in PBS and washed three times with PBS and pelleted. The total RNA isolated using the Qiagen RNeasy Mini kit (Qiagen Inc.) according to the handbook protocol. The quantity of RNA was measured spectrophotometrically at Absorbance 260 nm (1Abs260=40 ug/ml) and the quality of RNA A260:A280 ratio was measured between 1.8 to 2.0. For each experiment, 0.9 μg of total RNA was converted to cDNA using the RT^2 first strand kit (SABiosciences, Qiagen Inc.) and analyzed on the SABiosciences (Qiagen Inc.) PAHS-024C Human angiogenesis array with an Applied Biosciences 7900HT real-time PCR machine according to manufactures protocol. The threshold cycle (Ct) and baseline for each well was determined by instruments software and the resulting Ct values were analyzed using SABiosciences PCR Array Data Analysis Web-based Software (http://sabiosciences.com/pcrarraydataanalysis.php). β-Actin and/or GADPH were used as housekeeping gene for determining fold regulation.

HUVEC tube formation = experiment: HUVEC tubulogenesis assay on Matrigel; assay type: cell-based, human; details: for neovascularization (tube formation) in HUVEC: after 30 min of treatment; for tube formation after treatment: HUVEC on Matrigel, 30 min treatment period
Procedure: Endothelial cell tubulogenesis assay was performed seeding 20,000 cells of HUVECs in 96-well plate that was pre-coated with 0.1% gelatin and 40 ul of Matrigel and treated with increasing concentration of phosphaplatin compounds, RRD2 and RRD4 in medium 199 (Lonza Walkersville, Frederick, Md.) supplemented with 20% heat-inactivated FBS (Hyclone, Logan, Utah), 100 μg/ml heparin (Sigma Aldrich, St. Louis, Mo.), 100 U/ml penicillin-streptomycin (Lonza Walkersville, Frederick, Md.) and endothelial mitogen (Biomedical Technologies, Stoughton, Mass.). In brief, Matrigel was defrosted overnight at 4° C. and the 0.1% gelatin coated 96 well plate was chilled and 40 μl of Matrigel was coated into each well. The plate was then incubated at 37° C. and 5% CO2 for 1 hour. The 96-well plate was seeded with 2×10^4 cells of HUVECs. After a 24 hour period of cell attachment each well was treated with the increasing concentration of Pt compounds overnight (8-10 hours) at 37° C. and 5% CO2. The capillary/tube formation structures formed were then recorded by an inverted microscope and quantified. Cells were counted in total visual area of 1.575 mm.
To further investigate the anti-angiogenetic behavior of RRD2 and RRD4 on endothelial cell tube formation, we treated HUVECs with different concentration of RRD2 and RRD4 (compounds A and D in FIG. 2) onto Matrigel. After 30 min of incubation with tube-like structures were monitored with an inverted microscope at 40× magnification.

PEDF protein [2] = experiment: PEDF protein expression by Western blot in A2780 cells; assay type: cell-based, human; details: 3 hrs, 6 hrs and 12 hrs treatment
Procedure: Treated human ovarian cancer cells (approximately 1×10^6 cells in 60 mm^3 plates at 80-90% confluence) line with 20 μM RRD2 and 25 μM RRD4 for 3, 6 and 12 hrs was washed with PBS for three times. Total protein was extracted by treating the washed cells directly with 200 μl of RIPA (Sigma, St. Louis, Mo.) or MPER (Pierce, USA). Protein extract samples (50 μg) were separated by 12% SDS-PAGE and blotted onto polyvinylidene difluoride (PVDF) membranes. The blots were washed with TBST [10 mM Tris-HCl (pH 7.6), 150 mM NaCl, 0.1% Tween-20], blocked with 5% skim milk and 1% BSA overnight at 4 C, and incubated with the mouse anit-PEDF (Santa Cruz Biotechnology, USA) primary antibody at 1:500 dilutions in TBST with 5% skim milk and 1% BSA overnight at 4° C. The membrane was then washed TBST, and the primary antibodies were detected with secondary antibody goat anti-mouse IgG conjugated to horseradish peroxidase at 1:2500 dilution for 1.5 hours at room temperature. The blots were developed with enhanced chemiluminescence (ECL) (Pierce, USA) and exposed to X-ray film.

PEDF gene [3] = experiment: Individual PEDF gene expression, two step qRT-PCR; assay type: cell-based, human; details: A2780 cells, Single gene expression, endogenous control GADPH
Procedure: Individual Gene expression for PEDF was assessed by two step qRT-PCR assay. First, RNA isolation and purification was done as described above. A total of 2 μg total RNA was used to reverse-transcribe the template into single-stranded cDNA using RT^2 first strand kit (SABiosciences, Qiagen Inc.). In the second step, the synthesized cDNA was subjected to qRT-PCR RT^2 Primer Set (PEDF) used with SYBR Green real-time PCR master mix detection and endogenous control β-actin and/or GADPH (Applied Biosystems, Foster City, Calif.). All PCR reactions involving cDNA samples from treated and untreated cells were run in triplicate. Quantitative real-time PCR reactions were carried out on the StepOne PCR machine, 48 well system (Applied Biosystems, Foster City, Calif.) according to manufactures protocol. Results were generated using the StepOne software v2.1. The 2^−ΔΔCt method was used to present the relative differences in the mRNA expression levels.

PEDF protein [4] = experiment: PEDF protein expression by immunofluorescence in A2780 cells; assay type: cell-based, human; details: for PEDF protein expression by immunofluorescence: 12 hour treatment; for PEDF overexpression, time dependence: 3 to 24 hr, 20 and 25 μM
Procedure: A 6-well plate containing pretreated cover slips was seeded with 500-1000 cells of A2780 human ovarian cancer cell lines in 2.5 ml of RPMI 1640 media (Lonza Walkersville, Frederick, Md.) containing 2.0 mM L-glutamine and supplemented with 10% heat inactivated fetal bovine serum, FBS (Hyclone, Logan, Utah), and 0.25 units/mL recombinant human insulin (Sigma Aldrich, St. Louis, Mo.), 100 U/ml penicillin-streptomycin (Lonza Walkersville, Frederick, Md.). Those cells reaching to 80% confluency were treated with phosphaplatin compounds, RRD2 and RRD4 at various time intervals (3, 6, 12, or 24 hours). Each of the cover slip was washed with PBS three times, and the cells were fixed with freshly prepared 4% paraformaldehyde at room temperature for 20 minutes. The fixed cells were then washed with PBS for three times. These cells were permeablized and blocked with 7.5% bovine serum albumin, BSA/PBS/0.01% triton-X100 at 37° C. for 60 minutes followed by washing the cells with PBS twice. The cover slips were treated with a 1:300 dilution of Pigment epithelium-derived factor (PEDF; also known as serpin F1, SERPINF1) mouse primary antibody (Cell Signalling Technology Inc., Danvers, Mass.) in 7.5% BSA/PBS/0.01% triton for 12-15 hours 37° C. and washed with PBS for three times. The coverslips were incubated with secondary Alexa Fluor 488-conjugated anti-mouse IgG (FITC-Green) (Invitrogen, Carlsbad, Calif.) at a 1:5000 dilution in 7.5% BSA/PBS/0.01% triton-X100 for 1 hour at 37° C. in the dark. The cover-slips were then washed with PBS for another three times. In addition, some treatments were stained for beta-Actin and was stained with Phalloidin (Rhodamine) (Red) (Invitrogen, Carlsbad, Calif.) (7 ul/ml) in 7.5% BSA/PBS/0.01% triton-X100 for 1 hour at 37° C. in the dark. The moist cover-slips were then mounted onto a microscope slide with Ultracruz mounting media containing DAPI (4′,6-diamidino-2-phenylindole) (Blue) (Santa Cruz Biotechnology, Santa Cruz, Calif.) (for identifying the nucleus) and images were then collected on an Olympus FV-1000 inverted stage confocal microscope using a Plan Apo N 60×1.42NA oil immersion objective and processed by FluoView software.

SMILES | effect on viability of ARPE19 retinal cells (ARPE19 cells) | Fold change expression of PEDF (PEDF gene [1]; 13 uM) [fold] | neovascularization (tube formation) in HUVEC (HUVEC tube formation; 10 μM) | tube formation after treatment (HUVEC tube formation) | PEDF protein expression by Western Blotting (PEDF protein [2]; A2780, 25 μM) | Fold change expression of PEDF (PEDF gene [3]; 25 uM, 3 hr) [fold] | Fold change expression of PEDF (PEDF gene [3]; 50 uM, 24 hr) [fold] | PEDF protein expression by immunofluorescence (PEDF protein [4]; A2780, 25 μM) | PEDF overexpression, time dependence (PEDF protein [4]; human ovarian cells) | Fold change expression of PEDF (PEDF gene [1]; 5 uM) [fold] | Fold change expression of PEDF (PEDF gene [1]; 20 uM) [fold] | inhibition of HUVEC tube formation on Matrigel (HUVEC tube formation; 0.5 μM, 30 min incubation) | neovascularization (tube formation) in HUVEC (HUVEC tube formation; 1 μM) | PEDF protein expression by Western Blotting (PEDF protein [2]; A2780, 20 μM) | PEDF protein expression by immunofluorescence (PEDF protein [4]; A2780, 20 μM) | treatment time of maximum PEDF protein expression (PEDF protein [4]; immune-fluorescence experiments, human ovarian cells) [h]
NC1CCCCC1N.O=P1(O)OP(=O)(O)[O][Pt]([OH])([OH])[O]1 [RRD4, R,R-trans-1,2-cyclohexane-diamine-trans-dihydroxo(dihydrogenpyrophospahto) platinum(IV)] | no effect | 2.05 | inhibition | No tube formation was evident | overexpression; also recorded: upregulated | 2.1 | 4.1 | overexpression; also recorded: overexpressed or upregulated | time dependent overexpression |  |  |  |  |  |  | 
NC1CCCCC1N.O=P1(O)[O][Pt][O]P(=O)(O)O1 [RRD2, R,R-trans-1,2-cyclohexane-diamine (dihydrogen pyrophospahto)platinum(II)] | no effect |  |  | No tube formation was evident |  |  |  |  | time dependent overexpression | 2.64 | 5.79 | more than 85% | inhibition | overexpression; also recorded: upregulated | overexpression; also recorded: overexpressed or upregulated | 12
